Data on 1 compound can be found in patent US20220387317A1, “METHODS AND COMPOSITIONS RELATING TO SELECTIVE INTRACELLULAR DELIVERY OF CD38 INHIBITORS” (Ohio State Innovation Foundation, priority 2019, published 2022).

Entries after “also recorded” stand apart in the source; their conditions may differ.

For test [1], the system named is Sprague Dawley rats. Kind of test: Rat liver hilar clamp model of IRI (segmental 70% ischemia). The class given is in vivo. The source says:
In Vitro: Primary liver cells subjected to H2O2-induced oxidative stress injury. In Vivo: Liver IRI induced in Sprague Dawley rats using a segmental (70% ischemia) hilar clamp model. Markers of liver injury including plasma ALT and AST, tissue MDA, ATP, and GSH, and histology assessed. • b) Results Hypoxic HSCs had increased CD38 expression (FIG. 11) and CD38 activity measured by fluorometric assay (FIG. 12). CD38 expression, activity, and hepatocellular injury increased with duration of ischemia in a rat hilar clamp model of IRI: Sprague-Dawley rats underwent a hilar clamp procedure to induce IRI for 30, 60, 90, 120 min of ischemia followed by 6 h reperfusion. Tissue CD38 expression was measured by Western blot (FIG. 15A), serum ALT by colorimetric assay at 0, 30, 180, 360 min post reperfusion (FIG. 15B), and CD38 activity at all ischemia time points (FIG. 15C). CD38 inhibition increases cell viability, decreases intracellular ROS formation and ET-1 production in HSCs exposed to hypoxia/oxidant stress: Primary rat HSCs were exposed to 3 h hypoxia (0% 02) and 2 h oxidant stress (H2O2). […] Rat model of marginal donor organ recapitulates the inflammatory environment of a discarded “high risk” human donor organ: Control rats have little steatosis by H&E (FIG. 18A) and mild CD38 expression by IHC (FIG. 18B). Rats fed a methionine choline deficient (MCD) diet have severe steatosis by H&E (FIG. 18C) and high CD38 expression co-localizing with GFAP positive HSCs by IHC (FIG. 18D).

Test [2] concerns the target T1, CD38 (Rattus norvegicus, UniProt Q64244).
T1 construct: Liver IRI induced in Sprague Dawley rats using a segmental (70% ischemia) hilar clamp model; from tissue; host or cells: rat liver (Sprague Dawley, hilar clamp ischemia/reperfusion)
T1 sequence (Q64244 1-303): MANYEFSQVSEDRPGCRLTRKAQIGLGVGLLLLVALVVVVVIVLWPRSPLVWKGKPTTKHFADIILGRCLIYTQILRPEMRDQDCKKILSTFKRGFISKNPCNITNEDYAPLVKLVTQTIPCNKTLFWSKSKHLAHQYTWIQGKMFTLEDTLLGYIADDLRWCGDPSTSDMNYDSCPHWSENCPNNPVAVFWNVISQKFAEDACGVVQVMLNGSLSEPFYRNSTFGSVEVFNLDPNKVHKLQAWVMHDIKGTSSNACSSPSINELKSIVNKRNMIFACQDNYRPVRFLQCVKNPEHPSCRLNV
Kind of test: CD38 activity during hepatic IRI. In kind it is in vivo. The source says:
In Vitro: Primary liver cells subjected to H2O2-induced oxidative stress injury. In Vivo: Liver IRI induced in Sprague Dawley rats using a segmental (70% ischemia) hilar clamp model. […] Additionally, CD38 activity correlated with increased ischemic time (FIGS. 15A and 15C). However, Apigenin treatment attenuated liver IRI (FIG. 16). […] Additionally, Apigenin treatment improves tissue MAD, ATP and GSH. Lastly, Apigenin treatment preserves tissue architecture.

As for `O=c1cc(-c2ccc(O)cc2)oc2cc(O)cc(O)c12` [Apigenin], the tissue architecture entry in test [1] (histology, liver IRI) is given as “preserves”. The “liver IRI (injury)” value in test [1] (intrahepatic delivery, 1 h of ischemia and 6 h of reperfusion, FIG. 16) was “attenuated; also recorded: protection from injury; also recorded: decreased injury”. Besides, in test [1] (liver tissue, liver IRI), the “tissue ATP” value is given as “improves”, the “tissue GSH” value is reported as “improves” and the “tissue MDA (malondialdehyde)” value was “improves”. In addition, in test [1] (plasma, liver IRI), the ALT entry is given as “improves” and the AST entry is “improves”. Further, in test [2] (FIG. 14), the “CD38 activity during IRI” value was “rescued”. Besides, in test [2] (FIG. 14, listed as Inhibitor), the “CD38 activity during IRI” value was “decreases”.
